Emax, EC50 and Ki data for two molecules are collected here from patent US20230265151A1, “GIP/GLP1 CO-AGONIST COMPOUNDS” (priority 2020, published 2023).

The structures appear in SMILES notation. Like-named read-outs stand apart in the source and are kept apart here. Where only a bound is given, the exact number is not on record here.

Assay [1] addresses hGLP-1R (Homo sapiens, UniProt P43220). Kind of assay: Functional cAMP formation (HTRF) in HEK-293 clonal cells expressing hGLP-1R, 0.1% bovine casein, without or with 1.0% human serum albumin. Type of assay: cell-based. Also noted: expressed in transfected cells. The conditions noted are these: for Emax: percent of maximal response to GLP-1(7-36)NH2; for EC50: hGLP-1R EC50, nM (SEM, n), cAMP, 37° C., 0.1% bovine casein (no human serum albumin), geometric mean. The essentials: (§1)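 Readings of the HTRF 665/620 nm ratio, which falls as cAMP rises, were converted to nM cAMP using a standard curve after 30 min peptide exposure at 37° C.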
For orientation: cAMP levels reflect the balance of adenylyl cyclase and phosphodiesterase activity.

Assay [2] concerns the target T1, hGCGR (Homo sapiens, UniProt P47871).
T1 construct: expressed in transfected cells
As to the kind of experiment: Functional cAMP formation (HTRF) in HEK-293 clonal cells expressing hGCGR, 0.1% bovine casein, without or with 1.0% human serum albumin. Type of assay: cell-based. The following applies: hGCGR EC50, nM (SEM, n), cAMP, 37° C. The essentials:
as §1

The target in assay [3] is T2, human GLP-1 receptor (hGLP-1R) (Homo sapiens, UniProt P43220).
T2 construct: expressed in transfected cells; crude membranes
T2 sequence (P43220 24-463): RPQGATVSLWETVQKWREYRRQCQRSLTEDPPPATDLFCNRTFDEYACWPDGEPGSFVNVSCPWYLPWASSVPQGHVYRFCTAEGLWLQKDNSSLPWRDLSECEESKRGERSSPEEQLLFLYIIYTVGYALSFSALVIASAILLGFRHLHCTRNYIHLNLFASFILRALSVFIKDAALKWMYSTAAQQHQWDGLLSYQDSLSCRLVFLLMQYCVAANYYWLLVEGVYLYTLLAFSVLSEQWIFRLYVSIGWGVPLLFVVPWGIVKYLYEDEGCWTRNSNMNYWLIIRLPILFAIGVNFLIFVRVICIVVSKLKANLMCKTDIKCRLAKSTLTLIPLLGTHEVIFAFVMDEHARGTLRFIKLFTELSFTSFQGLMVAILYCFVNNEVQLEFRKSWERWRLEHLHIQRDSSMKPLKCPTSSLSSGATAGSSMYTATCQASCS
As to the kind of experiment: [125I]-GLP-1 binding, SPA with membranes of HEK293 cells expressing hGLP-1R.

In assay [4] the target is T3, hGIPR (Homo sapiens, UniProt P48546).
T3 construct: expressed in transfected cells
T3 sequence (P48546 22-466): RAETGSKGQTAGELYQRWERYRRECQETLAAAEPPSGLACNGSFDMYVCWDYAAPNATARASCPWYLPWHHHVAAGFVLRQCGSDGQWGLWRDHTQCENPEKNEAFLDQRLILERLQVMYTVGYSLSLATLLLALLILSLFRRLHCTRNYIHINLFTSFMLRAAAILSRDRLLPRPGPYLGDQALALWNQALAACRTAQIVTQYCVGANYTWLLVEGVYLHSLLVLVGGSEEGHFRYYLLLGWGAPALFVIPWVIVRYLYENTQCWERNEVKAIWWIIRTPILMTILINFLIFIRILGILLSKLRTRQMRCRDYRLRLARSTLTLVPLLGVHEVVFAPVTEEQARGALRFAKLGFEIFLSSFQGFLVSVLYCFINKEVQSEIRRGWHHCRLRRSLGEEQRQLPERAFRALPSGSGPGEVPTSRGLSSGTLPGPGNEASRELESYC
Kind of assay: Functional cAMP formation (HTRF) in HEK-293 clonal cells expressing hGIPR, 0.1% bovine casein, without or with 1.0% human serum albumin. Type of assay: cell-based. The conditions noted are these: for Emax: HEK293, read-out: hGIPR Emax, % ± SEM, cAMP, 37° C., 0.1% bovine casein and 1.0% human serum albumin, percent of maximal response to GIP(1-42)NH2; for EC50: hGIPR EC50, nM (SEM, n), cAMP, 37° C., 0.1% bovine casein (no human serum albumin), geometric mean. The essentials: as §1

[5] abbreviates: HEK293, read-out: hGLP-1R Emax, % ± SEM, cAMP, 37° C., 0.1% bovine casein and 1.0% human serum albumin.
Where [6] appears, read: HEK293, read-out: hGLP-1R Emax, % ± SEM, cAMP, 37° C., 0.1% bovine casein, arithmetic mean.
Setting [7] is: 0.1% bovine casein (no human serum albumin), geometric mean.
The mark [8] stands for this setting: 0.1% bovine casein and 1.0% human serum albumin, geometric mean (SEM, n).

T1 sequence (P47871 26-477): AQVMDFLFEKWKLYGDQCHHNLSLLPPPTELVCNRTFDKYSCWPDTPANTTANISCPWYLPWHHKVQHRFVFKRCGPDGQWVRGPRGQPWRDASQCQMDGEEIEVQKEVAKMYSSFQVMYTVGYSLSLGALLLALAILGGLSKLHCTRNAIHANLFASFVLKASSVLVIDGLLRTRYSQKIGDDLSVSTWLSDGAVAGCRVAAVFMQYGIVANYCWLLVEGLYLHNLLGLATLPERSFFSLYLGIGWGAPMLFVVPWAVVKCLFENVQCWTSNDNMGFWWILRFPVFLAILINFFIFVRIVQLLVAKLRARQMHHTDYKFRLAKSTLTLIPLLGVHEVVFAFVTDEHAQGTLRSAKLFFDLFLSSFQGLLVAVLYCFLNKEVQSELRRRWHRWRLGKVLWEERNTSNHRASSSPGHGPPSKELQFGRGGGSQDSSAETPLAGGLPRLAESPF
Chain of hGLP-1R (P43220 24-463): as the sequence (P43220 24-463) above

In general, Emax refers to the maximal effect, on the per cent scale that the assay sets. A word on the EC50: it is the midpoint of the concentration-response curve. The term Ki denotes a measure of affinity in units of concentration, obtained from inhibition or displacement. A higher Ki goes with weaker binding. Regarding `CC[C@H](C)[C@H](NC(=O)[C@H](CC(C)C)NC(=O)[C@](C)(Cc1ccc(O)cc1)NC(=O)[C@H](CCCCNC(=O)COCCOCCNC(=O)COCCOCCNC(=O)[C@H]1CC[C@H](CNC(=O)CC[C@H](NC(=O)CCCCCCCCCOc2ccc(C(=O)O)cc2)C(=O)O)CC1)NC(=O)[C@@H](NC(=O)[C@H](Cc1ccccc1)NC(=O)[C@H](CCCN)NC(=O)C(C)(C)NC(=O)[C@H](CCC(N)=O)NC(=O)[C@H](C)NC(=O)[C@H](CCC(N)=O)NC(=O)[C@H](CCCN)NC(=O)[C@H](CC(=O)O)NC(=O)[C@H](CC(C)C)NC(=O)[C@](C)(CC(C)C)NC(=O)[C@@H](NC(=O)C(C)(C)NC(=O)[C@H](Cc1ccncc1)NC(=O)[C@H](CC(=O)O)NC(=O)[C@H](CO)NC(=O)[C@@H](NC(=O)[C@](C)(Cc1ccccc1F)NC(=O)[C@@H](NC(=O)CNC(=O)[C@H](CCC(=O)O)NC(=O)C(C)(C)NC(=O)[C@@H](N)Cc1ccc(O)cc1)[C@@H](C)O)[C@@H](C)O)[C@@H](C)CC)[C@@H](C)CC)C(=O)N[C@@H](CCCCNC(=O)COCCOCCNC(=O)COCCOCCNC(=O)[C@H]1CC[C@H](CNC(=O)CC[C@H](NC(=O)CCCCCCCCCOc2ccc(C(=O)O)cc2)C(=O)O)CC1)C(=O)NCC(=O)NCC(=O)N1CCC[C@H]1C(=O)N[C@@H](CO)C(=O)N[C@@H](CO)C(=O)NCC(=O)N[C@@H](C)C(=O)N1CCC[C@H]1C(=O)N1CCC[C@H]1C(=O)N1CCC[C@H]1C(=O)N[C@@H](CO)C(N)=O` [Example 471], the figures for the maximum response (Emax) in assay [1] (setting [5]), in assay [1] (setting [6]) and in assay [4] were 110%, 112% and 90.1%, respectively. The EC50 is 0.143 nM in assay [1], more than 9950 nM in assay [2] (setting [7]), more than 9950 nM in assay [2] (setting [8]) and 0.0107 nM in assay [4]. The molecule further returned a Ki in assay [3] of 0.197 nM.
As for `CC[C@H](C)[C@H](NC(=O)[C@H](CC(C)C)NC(=O)[C@](C)(Cc1ccc(O)cc1)NC(=O)[C@H](CCCCNC(=O)COCCOCCNC(=O)[C@H]1CC[C@H](CNC(=O)CC[C@H](NC(=O)CCCCCCCCCOc2ccc(C(=O)O)cc2)C(=O)O)CC1)NC(=O)[C@@H](NC(=O)[C@H](Cc1ccccc1)NC(=O)[C@H](CCCN)NC(=O)C(C)(C)NC(=O)[C@H](CCC(N)=O)NC(=O)[C@H](C)NC(=O)[C@H](CCC(N)=O)NC(=O)[C@H](CCCN)NC(=O)[C@H](CC(=O)O)NC(=O)[C@H](CC(C)C)NC(=O)[C@](C)(CC(C)C)NC(=O)[C@@H](NC(=O)C(C)(C)NC(=O)[C@H](Cc1ccncc1)NC(=O)[C@H](CC(=O)O)NC(=O)[C@H](CO)NC(=O)[C@@H](NC(=O)[C@](C)(Cc1ccccc1F)NC(=O)[C@@H](NC(=O)CNC(=O)[C@H](CCC(=O)O)NC(=O)C(C)(C)NC(=O)[C@@H](N)Cc1ccc(O)cc1)[C@@H](C)O)[C@@H](C)O)[C@@H](C)CC)[C@@H](C)CC)C(=O)N[C@@H](CCCCNC(=O)COCCOCCNC(=O)[C@H]1CC[C@H](CNC(=O)CC[C@H](NC(=O)CCCCCCCCCOc2ccc(C(=O)O)cc2)C(=O)O)CC1)C(=O)NCC(=O)NCC(=O)N1CCC[C@H]1C(=O)N[C@@H](CO)C(=O)N[C@@H](CO)C(=O)NCC(=O)N[C@@H](C)C(=O)N1CCC[C@H]1C(=O)N1CCC[C@H]1C(=O)N1CCC[C@H]1C(=O)N[C@@H](CO)C(N)=O` [Example 473], the Emax worked out at 114% in assay [1] (setting [5]), 118% in assay [1] (setting [6]) and 92.8% in assay [4]. Besides, the EC50 is 0.192 nM in assay [1], more than 9950 nM in assay [2] (setting [7]), more than 9950 nM in assay [2] (setting [8]) and 0.0163 nM in assay [4]. In assay [3], this molecule came in with a Ki of 0.169 nM.
